Data from patent publication US6534447B1, “Herbicidal pyridine compounds” (BASF Aktiengesellschaft, priority 1999, dated 2003).

Columns and labels:
Type in all cases: in vivo
[1] = test system: weeds; experiment: Post-emergence herbicidal evaluation, overall weed control; settings: down to the lowest dose of 0.025 kg/ha
Procedure: These acetone solutions are diluted with water and the resulting formulations applied at dosage levels equivalent of about 0.025 to 0.4 kg per hectare of test compound per pot. After spraying the plants are placed on greenhouse benches and are cared for in the usual manner, commensurate with conventional greenhouse practices. From 3 weeks after treatment, the seedling plants are examined and rated according to the rating system provided above. A rating 0 indicates growth as untreated control, a rating 9 indicates death.

[2] = test system: eight weed species; experiment: Pre-emergence herbicidal evaluation, overall weed control; settings: crop selective dose of 0.1 kg/ha
Text: The pre-emergence herbicidal activity of the compounds of the present invention is exemplified by the following test in which the seeds of a variety of monocotyledonous and dicotyledonous plants are seperately mixed with potting soil and planted on top of approximately one inch of soil in separate post. After planting, the pots are sprayed with the selected aqueous acetone solution. containing test compound in sufficient quantity to provide the equivalent of about 0.025 to 0.4 kg per hectare of test compound per pot. The treated pots are then placed on greenhouse benches, watered and cared for in accordance with conventional greenhouse procedures. From 3 weeks after treatment, the tests are terminated and each pot is examined and rated according to the rating system set forth below.
Thus, there is evidence for the good potential of the compounds of the invention for excellent cross spectrum control of both grasses and broadleaf weeds in key crops.

[3] = test system: Triticum aestivum (TRZAW, winter wheat); experiment: Pre-emergence herbicidal evaluation (crop); settings: 3 weeks after treatment
In short: (§1)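 After sowing on top of roughly one inch of soil, each pot received a spray of the compound in aqueous acetone delivering about 0.025 to 0.4 kg per hectare. Plants were then grown on greenhouse benches and scored visually from 3 weeks after treatment.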

[4] = test system: Zea mays (ZEAMX, maize); experiment: Pre-emergence herbicidal evaluation (crop); settings: 3 weeks after treatment
In short: as §1

[5] = test system: Glycine max (GLXMA, soyabeans); experiment: Pre-emergence herbicidal evaluation (crop); settings: 3 weeks after treatment
In short: as §1

[6] = test system: Alopecurus myosuroides (ALOMY, black grass); experiment: Pre-emergence herbicidal evaluation; settings: 3 weeks after treatment
In short: as §1

[7] = test system: Ipomoea hederacea (IPOHE, morning glory); experiment: Pre-emergence herbicidal evaluation; settings: 3 weeks after treatment
In short: as §1

[8] = test system: Setaria viridis (SETVI, green foxtail); experiment: Pre-emergence herbicidal evaluation; settings: 3 weeks after treatment
In short: as §1

[9] = test system: Matricaria inodora (MATIN, mayweed); experiment: Pre-emergence herbicidal evaluation; settings: 3 weeks after treatment
In short: as §1

[10] = test system: Abutilon theophrasti (ABUTH, velvetleaf); experiment: Pre-emergence herbicidal evaluation; settings: 3 weeks after treatment
In short: as §1

[11] = test system: Galium aparine (GALAP, cleaver); experiment: Pre-emergence herbicidal evaluation; settings: 3 weeks after treatment
In short: as §1

[12] = test system: Stellaria media (STEME, chickweed); experiment: Pre-emergence herbicidal evaluation; settings: 3 weeks after treatment
In short: as §1

[13] = test system: Echinochloa grus galli (ECHCG, barnyard grass); experiment: Pre-emergence herbicidal evaluation; settings: 3 weeks after treatment
In short: as §1

[14] = test system: Alopecurus myosuroides (ALOMY, black grass); experiment: Post-emergence herbicidal evaluation; settings: 3 weeks after treatment
In short: (§2)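 First, acetone solutions are diluted with water; next, formulations are sprayed at about 0.025 to 0.4 kg/ha equivalent per pot; then plants are grown on greenhouse benches; finally, seedlings are rated from 3 weeks after treatment (0 untreated-like, 9 dead).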

[15] = test system: Ipomoea hederacea (IPOHE, morning glory); experiment: Post-emergence herbicidal evaluation; settings: 3 weeks after treatment
In short: as §2

[16] = test system: Setaria viridis (SETVI, green foxtail); experiment: Post-emergence herbicidal evaluation; settings: 3 weeks after treatment
In short: as §2

[17] = test system: Dolium multiflorum (LOLMU, ryegrass); experiment: Post-emergence herbicidal evaluation; settings: rate 0.100 kg/ha, 3 weeks after treatment
In short: as §2

[18] = test system: Matricaria inodora (MATIN, mayweed); experiment: Post-emergence herbicidal evaluation; settings: 3 weeks after treatment
In short: as §2

[19] = test system: Abutilon theophrasti (ABUTH, velvetleaf); experiment: Post-emergence herbicidal evaluation; settings: 3 weeks after treatment
In short: as §2

[20] = test system: Galium aparine (GALAP, cleaver); experiment: Post-emergence herbicidal evaluation; settings: 3 weeks after treatment
In short: as §2

[21] = test system: Stellaria media (STEME, chickweed); experiment: Post-emergence herbicidal evaluation; settings: 3 weeks after treatment
In short: as §2

[22] = test system: Echinochloa grus galli (ECHCG, barnyard grass); experiment: Post-emergence herbicidal evaluation; settings: 3 weeks after treatment
In short: as §2

In the case of `Cc1cc(OCCCSC(F)(F)F)nc(Oc2ccnc(C(F)(F)F)c2)c1` [Example 53], the “activity against weeds (in words)” value [1] is reported as “high levels of activity”, the “weed control (in words)” value [2] is reported as “complete control” and the TRZAW rating ([3]; rate 0.025 kg/ha) is reported as 1 (1 - Trace effect). The TRZAW rating ([3]; rate 0.100 kg/ha) was 2 (2 - Slight effect), the TRZAW rating ([3]; rate 0.400 kg/ha) was 4 (4 - Injury) and the ZEAMX rating ([4]; rate 0.025 kg/ha) was 2 (2 - Slight effect). For the same molecule, the ZEAMX rating ([4]; rate 0.100 kg/ha) was 4 (4 - Injury), the ZEAMX rating ([4]; rate 0.400 kg/ha) was 4 (4 - Injury) and the GLXMA rating ([5]; rate 0.025 kg/ha) was 4 (4 - Injury). The GLXMA rating ([5]; rate 0.100 kg/ha) was 4 (4 - Injury), the GLXMA rating ([5]; rate 0.400 kg/ha) was 6 (6 - Herbicidal effect) and the ALOMY rating ([6]; rate 0.025 kg/ha) was 8 (8 - Approaching complete kill). The ALOMY rating ([6]; rate 0.100 kg/ha) was 8 (8 - Approaching complete kill), the ALOMY rating ([6]; rate 0.400 kg/ha) was 8 (8 - Approaching complete kill) and the IPOHE rating ([7]; rate 0.025 kg/ha) was 8 (8 - Approaching complete kill). The IPOHE rating ([7]; rate 0.100 kg/ha) was 8 (8 - Approaching complete kill), the IPOHE rating ([7]; rate 0.400 kg/ha) was 9 (9 - Complete kill) and the SETVI rating ([8]; rate 0.025 kg/ha) was 8 (8 - Approaching complete kill). The SETVI rating ([8]; rate 0.100 kg/ha) was 8 (8 - Approaching complete kill), the SETVI rating ([8]; rate 0.400 kg/ha) was 8 (8 - Approaching complete kill) and the MATIN rating ([9]; rate 0.025 kg/ha) was 8 (8 - Approaching complete kill). The MATIN rating ([9]; rate 0.100 kg/ha) was 8 (8 - Approaching complete kill), the MATIN rating ([9]; rate 0.400 kg/ha) was 9 (9 - Complete kill) and the ABUTH rating ([10]; rate 0.025 kg/ha) was 9 (9 - Complete kill). The ABUTH rating ([10]; rate 0.100 kg/ha) was 9 (9 - Complete kill), the ABUTH rating ([10]; rate 0.400 kg/ha) was 9 (9 - Complete kill) and the GALAP rating ([11]; rate 0.025 kg/ha) was 4 (4 - Injury). The GALAP rating ([11]; rate 0.100 kg/ha) was 8 (8 - Approaching complete kill), the GALAP rating ([11]; rate 0.400 kg/ha) was 8 (8 - Approaching complete kill) and the STEME rating ([12]; rate 0.025 kg/ha) was 9 (9 - Complete kill). For the same molecule, the STEME rating ([12]; rate 0.100 kg/ha) was 9 (9 - Complete kill), the STEME rating ([12]; rate 0.400 kg/ha) was 9 (9 - Complete kill) and the ECHCG rating ([13]; rate 0.025 kg/ha) was 7 (7 - Good herbicidal effect). For the same molecule, the ECHCG rating ([13]; rate 0.100 kg/ha) was 8 (8 - Approaching complete kill), the ECHCG rating ([13]; rate 0.400 kg/ha) was 9 (9 - Complete kill) and the ALOMY rating ([14]; rate 0.025 kg/ha) was 6 (6 - Herbicidal effect). For the same molecule, the ALOMY rating ([14]; rate 0.100 kg/ha) was 8 (8 - Approaching complete kill), the ALOMY rating ([14]; rate 0.400 kg/ha) was 9 (9 - Complete kill) and the IPOHE rating ([15]; rate 0.025 kg/ha) was 9 (9 - Complete kill). For the same molecule, the IPOHE rating ([15]; rate 0.100 kg/ha) was 9 (9 - Complete kill), the IPOHE rating ([15]; rate 0.400 kg/ha) was 9 (9 - Complete kill) and the SETVI rating ([16]; rate 0.025 kg/ha) was 9 (9 - Complete kill). The SETVI rating ([16]; rate 0.100 kg/ha) was 9 (9 - Complete kill), the SETVI rating ([16]; rate 0.400 kg/ha) was 9 (9 - Complete kill) and the LOLMU rating [17] was 8 (8 - Approaching complete kill). The MATIN rating ([18]; rate 0.025 kg/ha) was 6 (6 - Herbicidal effect), the MATIN rating ([18]; rate 0.100 kg/ha) was 8 (8 - Approaching complete kill) and the MATIN rating ([18]; rate 0.400 kg/ha) was 8 (8 - Approaching complete kill). The ABUTH rating ([19]; rate 0.025 kg/ha) was 8 (8 - Approaching complete kill), the ABUTH rating ([19]; rate 0.100 kg/ha) was 9 (9 - Complete kill) and the ABUTH rating ([19]; rate 0.400 kg/ha) was 9 (9 - Complete kill). For the same molecule, the GALAP rating ([20]; rate 0.025 kg/ha) was 6 (6 - Herbicidal effect), the GALAP rating ([20]; rate 0.100 kg/ha) was 9 (9 - Complete kill) and the GALAP rating ([20]; rate 0.400 kg/ha) was 9 (9 - Complete kill). For the same molecule, the STEME rating ([21]; rate 0.025 kg/ha) was 8 (8 - Approaching complete kill), the STEME rating ([21]; rate 0.100 kg/ha) was 9 (9 - Complete kill) and the STEME rating ([21]; rate 0.400 kg/ha) was 9 (9 - Complete kill). The ECHCG rating ([22]; rate 0.025 kg/ha) was 9 (9 - Complete kill), the ECHCG rating ([22]; rate 0.100 kg/ha) was 9 (9 - Complete kill) and the ECHCG rating ([22]; rate 0.400 kg/ha) was 9 (9 - Complete kill).
